In ChEMBL document CHEMBL1148225, “Discovery and SAR of trisubstituted thiazolidinones as CCR4 antagonists” (Bioorg Med Chem Lett, 2004):
Several values for one entry are separate records, joined by “and”; a condition that tells them apart may be missing. Equal values may be shown once.

Target: T1, C-C chemokine receptor type 4 (Homo sapiens, UniProt P51679)
T1 sequence (P51679 whole entry): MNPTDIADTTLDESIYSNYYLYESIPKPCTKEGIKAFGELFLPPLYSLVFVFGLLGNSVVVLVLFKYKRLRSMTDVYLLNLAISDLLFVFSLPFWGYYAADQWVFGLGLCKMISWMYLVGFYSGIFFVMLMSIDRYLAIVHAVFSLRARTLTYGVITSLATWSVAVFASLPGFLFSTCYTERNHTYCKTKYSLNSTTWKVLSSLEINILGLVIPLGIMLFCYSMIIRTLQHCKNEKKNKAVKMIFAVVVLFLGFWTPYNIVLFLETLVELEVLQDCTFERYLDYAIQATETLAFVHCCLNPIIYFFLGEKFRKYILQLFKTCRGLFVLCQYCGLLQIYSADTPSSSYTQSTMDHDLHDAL
Test: Inhibition of [125I]MDC binding to recombinant human C-C chemokine receptor type 4 (CCR4) expressed in murine pre-B cells
Format: cell-based

| Compound | IC50 |
| --- | --- |
| O=C(C[C@H]1S[C@H](c2ccc(Cl)cc2Cl)N(CC(=O)NCCCN2CCOCC2)C1=O)NCc1ccco1 | 7 µM |
| CN(C)CCCN(C)C(=O)CN1C(=O)[C@@H](CC(=O)NCc2cccc3ccccc23)S[C@@H]1c1ccc(Cl)cc1Cl | 0.36 µM |
| O=C(C[C@H]1S[C@H](c2ccc(Cl)cc2Cl)N(CCCN2CCOCC2)C1=O)NCc1cccc2ccccc12 | 33 µM |
| Cc1c(Cl)cccc1CNC(=O)C[C@H]1S[C@H](c2ccc(Cl)cc2Cl)N(CC(=O)NCCCN2CCOCC2)C1=O | 0.4 µM |
| O=C(C[C@H]1S[C@H](c2ccc(Cl)cc2Cl)N(CC(=O)NCCCN2CCOCC2)C1=O)NCc1csc2ccccc12 | 0.34 µM |
| C[C@H](NC(=O)C[C@H]1S[C@H](c2ccc(Cl)cc2Cl)N(CC(=O)NCCCN2CCOCC2)C1=O)c1ccccc1 | 12 µM |
| C[C@@H](NC(=O)C[C@H]1S[C@H](c2ccc(Cl)cc2Cl)N(CC(=O)NCCCN2CCOCC2)C1=O)c1ccccc1 (stereo in doubt; 89) | 0.25 µM |
| CN1CCC(NC(=O)CN2C(=O)[C@@H](CC(=O)NCc3cccc4ccccc34)S[C@@H]2c2ccc(Cl)cc2Cl)CC1 | 8 µM |
| Cc1c(Cl)cccc1CNC(=O)C[C@H]1S[C@H](c2ccc(Cl)cc2Cl)N(CC(=O)NCCCN2CCCCC2)C1=O | 0.14 µM |
| O=C(C[C@H]1S[C@H](c2ccc(Cl)cc2Cl)N(CC(=O)N2CCC(N3CCCCC3)CC2)C1=O)NCc1cccc2ccccc12 | 0.33 µM |
| CN(C)CC(=O)NCCN1C(=O)[C@@H](CC(=O)NCc2cccc3ccccc23)S[C@@H]1c1ccc(Cl)cc1Cl | 11 µM |
| Cc1cccc(CNC(=O)C[C@H]2S[C@H](c3ccc(Cl)cc3Cl)N(CC(=O)NCCCN3CCOCC3)C2=O)c1C | 0.44 µM |
| CN(C)CCCNC(=O)CN1C(=O)[C@@H](CC(=O)NCc2cccc3ccccc23)S[C@@H]1c1ccc(Cl)cc1Cl | 0.36 µM |
| O=C(C[C@H]1S[C@H](c2ccc(Cl)cc2Cl)N(Cc2cccc(CN3CCOCC3)c2)C1=O)NCc1cccc2ccccc12 | 100 µM |
| COc1ccc(CNC(=O)C[C@H]2S[C@H](c3ccc(Cl)cc3Cl)N(CC(=O)NCCCN3CCOCC3)C2=O)c(OC)c1 | 32 µM |
| O=C(C[C@H]1S[C@H](c2ccc(Cl)cc2Cl)N(CC(=O)NCCCN2CCOCC2)C1=O)NCc1cccc(Cl)c1Cl | 0.79 µM |
| O=C(C[C@H]1S[C@H](c2ccc(Cl)cc2Cl)N(CC(=O)NCCCN2CCOCC2)C1=O)NCc1cc(Cl)cc(Cl)c1 | 1.5 µM |
| O=C(C[C@H]1S[C@H](c2ccc(Cl)cc2Cl)N(CCNS(=O)(=O)CCCN2CCOCC2)C1=O)NCc1cccc2ccccc12 | 24 µM |
| O=C(C[C@H]1S[C@H](c2ccc(Cl)cc2Cl)N(CC(=O)NCCCN2CCOCC2)C1=O)NCc1cccc(F)c1 | 1.5 µM |
| O=C(C[C@H]1S[C@H](c2ccc(Cl)cc2Cl)N(CC(=O)NCCCN2CCOCC2)C1=O)NCc1cccs1 | 11 µM |

| Compound | IC50 |
| --- | --- |
| COc1ccc(CNC(=O)C[C@H]2S[C@H](c3ccc(Cl)cc3Cl)N(CC(=O)NCCCN3CCOCC3)C2=O)c(OC)c1OC | 11 µM |
| O=C(C[C@H]1S[C@H](c2ccc(Cl)cc2Cl)N(CC(=O)NCCCN2CCOCC2)C1=O)NCc1ccc2[nH]ccc2c1 | 1 µM |
| O=C(C[C@H]1S[C@H](c2ccc(Cl)cc2Cl)N(CCC(=O)N2CCNCC2)C1=O)NCc1cccc2ccccc12 | 3.5 µM |
| O=C(CN1C(=O)[C@@H](CC(=O)NC2CCCc3ccccc32)S[C@@H]1c1ccc(Cl)cc1Cl)NCCCN1CCOCC1 (stereo not given in full) | 6.7 µM |
| O=C(CN1C(=O)[C@@H](CC(=O)NC(c2ccccc2)c2ccccc2)S[C@@H]1c1ccc(Cl)cc1Cl)NCCCN1CCOCC1 | 6 µM |
| O=C(C[C@H]1S[C@H](c2ccc(Cl)cc2Cl)N(CC(=O)NCCCN2CCOCC2)C1=O)NCc1cccc(Cl)c1 | 0.93 µM |
| O=C(C[C@H]1S[C@H](c2ccc(Cl)cc2Cl)N(CC(=O)NCCCN2CCOCC2)C1=O)NCc1ccc(Cl)cc1Cl (stereo in doubt; 72) | 3 µM |
| O=C(CN1C(=O)[C@@H](CC(=O)N[C@@H]2CCc3ccccc32)S[C@@H]1c1ccc(Cl)cc1Cl)NCCCN1CCOCC1 | 2.9 µM |
| O=C(C[C@H]1S[C@H](c2ccc(Cl)cc2Cl)N(CC(=O)NCCCN2CCOCC2)C1=O)NCc1ccc(-c2ccccc2)cc1 | 2.5 µM |
| CN(C)CCN1C(=O)[C@@H](CC(=O)NCc2cccc3ccccc23)S[C@@H]1c1ccc(Cl)cc1Cl | 36 µM |
| O=C(C[C@H]1S[C@H](c2ccc(Cl)cc2Cl)N(CC(=O)NCCCN2CCOCC2)C1=O)NCCc1ccc(Cl)c(Cl)c1 | 13 µM |
| C[C@H](NC(=O)C[C@H]1S[C@H](c2ccc(Cl)cc2Cl)N(CC(=O)NCCCN2CCOCC2)C1=O)c1cccc2ccccc12 | 8 µM |
| O=C(C[C@H]1S[C@H](c2ccc(Cl)cc2Cl)N(CC(=O)NCCCN2CCOCC2)C1=O)NCc1ccc(Cl)cc1Cl (stereo in doubt; 66) | 2 µM |
| O=C(C[C@H]1S[C@H](c2ccc(Cl)cc2Cl)N(CC(=O)NCCCN2CCOCC2)C1=O)NCc1ccc(Cl)c(C(F)(F)F)c1 | 6 µM |
| O=C(C[C@H]1S[C@H](c2ccc(Cl)cc2Cl)N(CC(=O)N2CCC(N3CCCC3)CC2)C1=O)NCc1cccc2ccccc12 | 0.6 µM |
| O=C(C[C@H]1S[C@H](c2ccc(Cl)cc2Cl)N(CCN2CCOCC2)C1=O)NCc1cccc2ccccc12 | 9 µM |
| O=C(CN1C(=O)[C@@H](CC(=O)NC2CCCCC2)S[C@@H]1c1ccc(Cl)cc1Cl)NCCCN1CCOCC1 | 7 µM |
| O=C(CN1C(=O)[C@@H](CC(=O)Nc2nccs2)S[C@@H]1c1ccc(Cl)cc1Cl)NCCCN1CCOCC1 | 11 µM |
| CN1CCN(C(=O)CN2C(=O)[C@@H](CC(=O)NCc3cccc4ccccc34)S[C@@H]2c2ccc(Cl)cc2Cl)CC1 | 20 µM |

Results, then the compound that gave them:

| IC50 | Compound |
| --- | --- |
| 0.83 µM | O=C(C[C@H]1S[C@H](c2ccc(Cl)cc2)N(CC(=O)NCCCN2CCOCC2)C1=O)NCc1cccc2ccccc12 |
| 33 µM | COc1ccc([C@H]2S[C@H](CC(=O)NCc3cccc4ccccc34)C(=O)N2CC(=O)NCCCN2CCOCC2)c(OC)c1 |
| 0.57 µM | CN1CCN(CCCNC(=O)CN2C(=O)[C@@H](CC(=O)NCc3cccc4ccccc34)S[C@@H]2c2ccc(Cl)cc2Cl)CC1 |
| 1.3 µM | O=C(C[C@H]1S[C@H](c2ccc(Cl)cc2Cl)N(CC(=O)NCCCN2CCOCC2)C1=O)NCc1cccc(-c2ccccc2)c1 |
| 34 µM | O=C(C[C@H]1S[C@H](c2ccncc2)N(CC(=O)NCCCN2CCOCC2)C1=O)NCc1cccc2ccccc12 |
| 0.38 µM | O=C(C[C@H]1S[C@H](c2ccc(Cl)cc2Cl)N(CC(=O)NCCCCN2CCOCC2)C1=O)NCc1cccc2ccccc12 |
| 29 µM | O=C(C[C@H]1S[C@H](c2ccco2)N(CC(=O)NCCCN2CCOCC2)C1=O)NCc1cccc2ccccc12 |
| 2.4 µM | O=C(C[C@H]1S[C@H](c2ccc(Cl)cc2Cl)N(CC(=O)NCCCCCN2CCOCC2)C1=O)NCc1cccc2ccccc12 |
| 2.5 µM | O=C(C[C@H]1S[C@H](c2ccc(Cl)cc2Cl)N(CC(=O)NCCCN2CCOCC2)C1=O)NCc1cccc(C(F)(F)F)c1F |
| 2.4 µM and 0.83 µM | O=C(CC1SC(c2ccc(Cl)cc2)N(CC(=O)NCCCN2CCOCC2)C1=O)NCc1cccc2ccccc12 (stereo not given) |
| 18 µM | O=C(C[C@H]1S[C@H](c2ccc(Cl)cc2Cl)N(CCCCN2CCOCC2)C1=O)NCc1cccc2ccccc12 |
| 4 µM | O=C(C[C@H]1S[C@H](c2ccc(F)cc2)N(CC(=O)NCCCN2CCOCC2)C1=O)NCc1cccc2ccccc12 |
| 0.69 µM | O=C(C[C@H]1S[C@H](c2ccc(Cl)cc2Cl)N(CC(=O)NCCCN2CCOCC2)C1=O)NCc1cccc2ccccc12 |
| 8 µM | O=C(C[C@H]1S[C@H](c2c(Cl)cccc2Cl)N(CC(=O)NCCCN2CCOCC2)C1=O)NCc1cccc2ccccc12 |
| 3.5 µM | O=C(C[C@H]1S[C@H](c2ccc(Cl)cc2Cl)N(CC(=O)NCCN2CCOCC2)C1=O)NCc1cccc2ccccc12 |
| 100 µM | O=C(C[C@H]1S[C@H](c2ccoc2)N(CC(=O)NCCCN2CCOCC2)C1=O)NCc1cccc2ccccc12 |

| IC50 | Compound |
| --- | --- |
| > 100 µM | O=C(C[C@H]1S[C@H](Cc2ccccc2)N(CC(=O)NCCCN2CCOCC2)C1=O)NCc1cccc2ccccc12 |
| 33 µM | O=C(C[C@H]1S[C@H](c2cccs2)N(CC(=O)NCCCN2CCOCC2)C1=O)NCc1cccc2ccccc12 |
| 100 µM | O=C(C[C@H]1S[C@H](CCc2ccccc2)N(CC(=O)NCCCN2CCOCC2)C1=O)NCc1cccc2ccccc12 |
| 12 µM | O=C(C[C@H]1S[C@H](c2cccc(C(F)(F)F)c2)N(CC(=O)NCCCN2CCOCC2)C1=O)NCc1cccc2ccccc12 |
| ~6 µM | O=C(C[C@H]1S[C@@H](c2ccc(Cl)cc2)N(CC(=O)NCCCN2CCOCC2)C1=O)NCc1cccc2ccccc12 |
| 11 µM | Cc1ccc([C@H]2S[C@H](CC(=O)NCc3cccc4ccccc34)C(=O)N2CC(=O)NCCCN2CCOCC2)c(C)c1 |
| 11 µM | O=C(C[C@H]1S[C@H](c2ccccc2Cl)N(CC(=O)NCCCN2CCOCC2)C1=O)NCc1cccc2ccccc12 |
| > 25 µM | O=C(C[C@H]1S[C@H](c2ccc(Cl)c(Cl)c2)N(CC(=O)NCCCN2CCOCC2)C1=O)NCc1cccc2ccccc12 |
| 9 µM | O=C(C[C@H]1S[C@H](c2cc(Cl)cc(Cl)c2)N(CC(=O)NCCCN2CCOCC2)C1=O)NCc1cccc2ccccc12 |
| 1 µM | O=C(C[C@H]1S[C@H](c2ccc(F)cc2Cl)N(CC(=O)NCCCN2CCOCC2)C1=O)NCc1cccc2ccccc12 |
| 18 µM | O=C(C[C@H]1S[C@H](c2cccc(Cl)c2Cl)N(CC(=O)NCCCN2CCOCC2)C1=O)NCc1cccc2ccccc12 |
| 0.2 µM | O=C(C[C@H]1S[C@H](c2ccc(Cl)cc2Cl)N(CC(=O)NCCCN2CCCCC2)C1=O)NCc1cccc2ccccc12 |
| 1 µM | O=C(C[C@H]1S[C@H](c2ccc(F)cc2F)N(CC(=O)NCCCN2CCOCC2)C1=O)NCc1cccc2ccccc12 |
| 100 µM | O=C(C[C@H]1S[C@H](C2CCCCC2)N(CC(=O)NCCCN2CCOCC2)C1=O)NCc1cccc2ccccc12 |
| 6 µM | O=C(C[C@H]1S[C@H](c2ccc(Cl)cc2Cl)N(CC(=O)NCCCN2CCOCC2)C1=O)NCc1ccccc1-c1ccccc1 |
